Converted amounts (≈) assume the structure as drawn. Values belong to the compound of their own block, whether it stands above or below them.
Assays:
[1] = test system: NCI-N87; assay: Cytotoxicity against human NCI-N87 cells; format: functional, cell-based
[2] = test system: PC-3; assay: Cytotoxicity against human PC-3 cells assessed as inhibition of cell growth; format: functional, cell-based
[3] = test system: DU-145; assay: Growth inhibition of human DU-145 cells incubated for 24 hrs by sulforhodamine B assay; format: functional
[4] = test system: HL-60; assay: Cytotoxicity against human HL-60 cells assessed as reduction in cell growth incubated for 48 hrs by MTT assay; format: functional, cell-based; conditions: HL-60, 48 h
[5] = test system: NCI-N87; assay: Cytotoxicity against human NCI-N87 cells measured after 72 hrs by Celltiter-Glo assay; format: functional, cell-based; conditions: NCI-N87, 72 h
[6] = test system: P388; assay: Antiproliferative activity against mouse P388 cells assessed as reduction in cell proliferation incubated for 48 hrs by MTT assay; format: functional, cell-based; conditions: P388, 48 h
[7] = test system: HT-29; assay: Antiproliferative activity against human HT-29 cells assessed as reduction in cell viability after 72 hrs by MTT assay; format: functional, cell-based; conditions: HT-29, 72 h
[8] = test system: P388; assay: Cytotoxicity against mouse P388 cells assessed as reduction in cell viability by SRB assay; format: functional; conditions: read-out: ED50 (the source's name)
[9] = test system: HT-29; assay: Cytotoxicity against human HT-29 cells assessed as cell growth inhibition by MTT assay; format: functional, cell-based
[10] = biological target: Indoleamine 2,3-dioxygenase 1 (Homo sapiens, UniProt P14902); assay: Inhibition of IDO1 in HEK293 cells; format: cell-based
[11] = test system: HL-60; assay: Cytotoxicity against human HL-60 cells assessed as reduction in cell viability; format: functional, cell-based
[12] = test system: NCI-H1975; assay: Antiproliferative activity against human NCI-H1975 cells assessed as cell growth inhibition incubated for 72 hrs by MTT assay; format: functional, cell-based; conditions: NCI-H1975, 72 h
[13] = test system: NCI-H1650; assay: Antiproliferative activity against human NCI-H1650 cells assessed as cell growth inhibition incubated for 72 hrs by MTT assay; format: functional, cell-based; conditions: NCI-H1650, 72 h
[14] = test system: MCF7; assay: Antiproliferative activity against human MCF7 cells assessed as cell growth inhibition incubated for 72 hrs by MTT assay; format: functional, cell-based; conditions: MCF7, 72 h
[15] = test system: NCI/ADR-RES; assay: Antiproliferative activity against human MCF7ADR cells assessed as cell growth inhibition incubated for 72 hrs by MTT assay; format: functional, cell-based
[16] = test system: OVCAR-4; assay: Cytotoxicity against human OVCAR-4 cells assessed as cell growth inhibition; format: functional
[17] = test system: HL-60; assay: Antiproliferative activity against human HL-60 cells assessed as cell growth inhibition incubated for 72 hrs by MTT assay; format: functional, cell-based; conditions: HL-60, 72 h
[18] = test system: HCT-116; assay: Antiproliferative activity against human HCT-116 cells assessed as reduction in cell proliferation; format: functional, cell-based
[19] = test system: HeLa; assay: Cytotoxicity against human HeLa cells assessed as reduction in cell growth incubated for 48 hrs by MTT assay; format: functional, cell-based
[20] = test system: MCF7; assay: Cytotoxicity against human MCF7 cells assessed as reduction in cell growth incubated for 5 days by MTT assay; format: functional, cell-based; conditions: MCF7, 120 h
[21] = test system: NCI/ADR-RES; assay: Antiproliferative activity against human NCI-ADR-RES cells assessed as inhibition of cell growth measured after 48 hrs by SRB assay; format: functional, cell-based
[22] = test system: U-251; assay: Growth inhibition of human U-251 cells by sulforhodamine B assay; format: functional; conditions: time 72 hrs
[23] = test system: HT-29; assay: Growth inhibition of human HT-29 cells by SRB assay; format: functional
[24] = test system: HUVEC; assay: Cytotoxicity against HUVEC cells assessed as reduction in cell viability incubated for 48 hrs by MTT assay; format: functional, cell-based; conditions: Homo sapiens
[25] = test system: SMMC-7721; assay: Anticancer activity against human SMMC-7721 cells assessed as cell growth inhibition incubated for 48 hrs by CCK8 assay; format: functional, cell-based; conditions: SMMC-7721, 48 h
[26] = test system: SF-295; assay: Growth inhibition against human SF-295 cells incubated for 48 hrs by sulforhodamine B assay; format: functional
[27] = test system: NCI-N87; assay: Growth inhibition of human NCI-N87 cells assessed as reduction in cell viability measured after 72 hrs by MTT assay; format: functional
[28] = test system: HL-60; assay: Growth inhibition of human HL-60 cells incubated for 4 days by WST assay; format: functional; conditions: HL-60, 96 h, time 4 day
[29] = test system: K562; assay: Growth inhibition of human K562 cells incubated for 48 hrs by sulforhodamine B assay; format: functional
[30] = test system: HCT-116; assay: Anticancer activity against human HCT-116 cells assessed as cell growth inhibition; format: functional
[31] = test system: DU-145; assay: Growth inhibition of human DU-145 cells incubated for 48 hrs by sulforhodamine B assay; format: functional
[32] = test system: MCF7; assay: Antiproliferative activity against human MCF7 cells assessed as cell growth inhibition incubated for 48 hrs by MTT assay; format: functional, cell-based; conditions: MCF7, 48 h
[33] = test system: MCF7; assay: Growth inhibition of human MCF7 cells incubated for 48 hrs by SRB assay; format: functional
[34] = test system: MDA-MB-231; assay: Antiproliferative activity against human MDA-MB-231 cells assessed as reduction in cell viability after 48 hrs by SRB assay; format: functional, cell-based; conditions: MDA-MB-231, 48 h
[35] = test system: P388; assay: Cytotoxicity against mouse P388 cells assessed as inhibition of cell growth incubated for 48 hrs by SRB assay; format: functional, cell-based; conditions: P388, 48 h
[36] = test system: HT-29; assay: Cytotoxicity against human HT-29 cells assessed as reduction in cell viability by SRB assay; format: functional, cell-based
[37] = test system: NCI/ADR-RES; assay: Growth inhibition of human MCF7ADR cells; format: functional
[38] = test system: U-251; assay: Growth inhibition of human U-251 cells; format: functional
[39] = test system: SW-620; assay: Growth inhibition of human SW620 cells; format: functional
[40] = test system: NCI-H522; assay: Growth inhibition of human NCI-H522 cells; format: functional
[41] = test system: M14; assay: Growth inhibition of human M14 cells; format: functional
[42] = test system: SK-OV-3; assay: Growth inhibition of human SK-OV-3 cells by sulforhodamine B assay; format: functional
[43] = test system: DU-145; assay: Growth inhibition of human DU-145 cells by sulforhodamine B assay; format: functional
[44] = test system: A498; assay: Growth inhibition of human A498 cells by SRB method; format: functional
[45] = test system: U-937; assay: Cytotoxicity against human U-937 cells assessed reduction in cell growth incubated for 48 hrs by MTT assay; format: functional, cell-based; conditions: U-937, 48 h
[46] = test system: K562; assay: Cytotoxicity against human K562 cells assessed reduction in cell growth incubated for 48 hrs by MTT assay; format: functional, cell-based; conditions: K562, 48 h
[47] = Antiproliferative activity against human LA-N-1 cells assessed as cell growth inhibition; format: functional, cell-based; conditions: LAN1
[48] = test system: SH-SY5Y; assay: Cytotoxicity against human SH-SY5Y cells assessed as reduction in cell viability; format: functional, cell-based
[49] = test system: SK-N-DZ; assay: Anticancer activity against human SK-N-DZ cells assessed as cell growth inhibition measured after 72 hrs by DAPI staining based analysis; format: functional
[50] = test system: A-431; assay: Anticancer activity against human A-431 cells assessed as reduction of cell viability incubated for 48 hrs by MTT assay; format: functional, cell-based; conditions: A-431, 48 h

Sequence of Indoleamine 2,3-dioxygenase 1 (P14902 whole entry): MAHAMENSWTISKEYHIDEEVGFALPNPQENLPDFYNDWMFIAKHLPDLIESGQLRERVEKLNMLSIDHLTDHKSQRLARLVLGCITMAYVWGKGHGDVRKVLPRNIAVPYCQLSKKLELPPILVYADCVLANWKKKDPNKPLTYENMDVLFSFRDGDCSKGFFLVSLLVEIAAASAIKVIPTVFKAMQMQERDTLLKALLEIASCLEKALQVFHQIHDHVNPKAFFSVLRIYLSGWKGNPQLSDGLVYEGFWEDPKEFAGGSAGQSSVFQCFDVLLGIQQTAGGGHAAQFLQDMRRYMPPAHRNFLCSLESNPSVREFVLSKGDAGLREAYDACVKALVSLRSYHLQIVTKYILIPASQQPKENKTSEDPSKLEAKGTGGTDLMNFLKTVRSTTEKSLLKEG

Compound: O=c1c2ccc(O)cc2nc2c3[nH]c4ccccc4c3ccn12
IC50 [1]: 27.9 µM
IC50 [2]: 17.4 µM

Compound: C[S+]([O-])c1ccc2[nH]c3c(c2c1)CCN1C(=O)c2ccccc2NC31 (stereo not given)
GI50 [3]: 0.1 µM

Compound: CO[C@@H]1c2c([nH]c3ccccc23)-c2nc3ccccc3c(=O)n2[C@H]1O
IC50 [4]: 7.82 µM
IC50 [5]: 22.3 µM

Compound: COc1cccc2c(=O)n3ccc4c5ccccc5[nH]c4c3nc12
EC50 [8]: 12.3 µM
IC50 [9]: 27.1 µM

Compound: CCO[C@@H]1c2c([nH]c3ccccc23)-c2nc3ccccc3c(=O)n2[C@H]1O
IC50 [11]: 8.31 µM

Compound: O=c1c2cc(Cl)ccc2nc2n1CCc1c-2[nH]c2ccccc12
GI50 [16]: 1.5 µM

Compound: O=c1c2ccccc2nc2n1Cc1cc3ccccc3nc1-2 [LUOTONIN A]
IC50 [17]: > 100 µM
IC50 [18]: 51.1 µM
IC50 [19]: 3 µM
IC50 [20]: 3 µM
IC50 [21]: 3 µM

Continued, in another order:

IC50 [6]: 12.4 µM
IC50 [7]: 24.7 µM
Compound: O=c1c2cccc(O)c2nc2n1CCc1c-2[nH]c2ccccc12

IC50 [10]: 0.0243 µM
Compound: O=C1c2ccccc2N[C@H]2[C@H](O)C3C=C(F)C=CC3N12 (stereo not given in full)

IC50 [12]: 5.59 µM
IC50 [13]: 4.53 µM
IC50 [14]: 0.3 µM
Compound: CN1c2ccccc2C(=O)N2CCc3c([nH]c4ccccc34)C21 (stereo not given)
IC50 [15]: 0.47 µM

GI50 [22]: 0.02 µM
GI50 [23]: 31.6 µM
IC50 [25]: 18.9 µM
GI50 [28]: 19.8 µM
GI50 [29]: 25.8 µM
GI50 [30]: 33.9 µM
GI50 [31]: 31.7 µM
IC50 [32]: 74.5 µM
GI50 [33]: 19.6 µM
IC50 [34]: 118 µM
Compound: O=c1c2ccccc2nc2n1CCc1c-2[nH]c2ccccc12 [RUTAECARPINE]
IC50 [24]: 16.5 µM
GI50 [26]: 14.1 µM
GI50 [27]: 8.41 µM
IC50 [35]: 36.8 µM
IC50 [36]: 118 µM

GI50 [38]: 100 µM
GI50 [39]: 5 µM
GI50 [40]: 15 µM
GI50 [42]: 2.5 µM
GI50 [43]: 0.4 µM
IC50 [49]: 14 µM
IC50 [50]: 9 µM
Compound: O=C1c2ccccc2-n2c1nc1ccccc1c2=O [TRYPTANTHRIN]
GI50 [37]: 30 µM
GI50 [41]: 15 µM
GI50 [44]: 0.95 µM
IC50 [45]: 3.1 µg/mL (≈ 12.5 µM)
IC50 [46]: 6.3 µg/mL (≈ 25.4 µM)
IC50 [47]: 15.8 µM
IC50 [48]: 22 µM
